Test results as given in patent US11655308B2, “HM-3 fusion protein and application thereof” (TASLY BIOPHARMACEUTICALS CO., LTD., priority 2017, dated 2023).
Like-named read-outs stand apart in the source and are kept apart here. Marks after values point to notes of the source that are not given here.

What was measured:
[1] = tested on: transgenic blood vessel fluorescent zebrafish; test: In vivo anti-angiogenesis in zebrafish (SIVs area); parameters: area of SIVs: unit not given here; details: for inhibition rate of angiogenesis / area of SIVs: 24 h; for area of SIVs: normal control group 53193
Experimental: Experimental method: transgenic blood vessel fluorescent zebrafish was randomly selected and put into a six-well plate with 30 fish per well, and intravenously injected HM-3 polypeptide, TSL-1 fusion protein, TSL-2 fusion protein, TSL-3 fusion protein and TSL-4 fusion protein respectively in accordance with the dosage of 20 ng/tail and 66 ng/tail; the dosage was […] in Avastin positive control and the injection volume was 20 nL/tail; the zebrafish injected 20 nL/tail of buffer solution served as a solvent control group, and the zebrafish without any treatment served as a normal control group. 10 pieces of zebrafish were randomly selected from each group after processed for 24 h to observe the intestinal vessels of the transgenic zebrafish by a fluorescence microscope, as well as to take and maintain images. Image analysis was performed by Nikon MS-Elements D 3.10 to calculate the area (S) of SIVs (subintestinal vessel, SIV). The calculation formula of angiogenesis inhibition rate was as follows: Angiogenesis inhibition rate (%)=(1−S(Test sample group)/S(Normal control group))×100%
Statistical analysis was performed by variance analysis and Dunnett's T-test and the results were expressed as Mean±SD, where p<0.05 indicates a significant difference.

[2] = tested on: Rat chondrocyte; test: Influence of TSL-4 on viability of chondrocytes (MTT); type: cell-based; parameters: key to MTT test value: absorbance at 570 nm (MTT)
Experimental: (§1) At the end of incubation according to the experimental plan, 10 μL of 5 mg/ml MTT was added to each experimental group based upon 1/10 of the cell culture volume, so that the cells were incubated with MTT in the incubator for 4 hours. Afterwards, supernatant was carefully discarded, and 200 μL of dimethyl sulfoxide (DMSO) was added for mixing well, then the absorbance was measured on a microplate reader at a test wavelength of 570 nm. Calculating formula of relative cell activity ratio (%): a mean value of the absorbance (per well) in the experimental group/the absorbance in the control group multiplies by 100%. […] The difference between each group was analyzed by Prism 7.0, and tested by one-way ANOVA. *P<0.05 means statistical difference, **P<0.01 means significant statistical difference, and […] means extremely significant statistical difference.
The concentration of TSL-4 should be selected within 0.1, 0.3, 1, 3, 9, 27 μM.
In early experiment, the TSL-4 at each concentration had no effect on cell viability, therefore, it was diluted to 0.23 μM from 29.3 μM according to a dilution ratio of 1:5 based upon the concentration (293 μM) of the primary TSL-4 solution.

[3] = tested on: Rat chondrocyte; test: Protective effect of TSL-4 on chondrocytes injured by hydrogen peroxide (MTT); type: cell-based
Experimental: The culture medium was replaced to different experimental groups in the following day with a dose volume of 100 μl and incubated for 24 or 48 hours respectively.
as §1
In order to detect the protective effect of TSL-4 on chondrocytes injured by hydrogen peroxide, the experiment was divided into three groups control group (no hydrogen peroxide and TSL-4, only adding fresh culture medium), hydrogen peroxide modeling group (only adding hydrogen peroxide cell culture medium containing different concentrations) and TSL-4 administration group (containing hydrogen peroxide). In order to detect the protective effect of TSL-4 on chondrocytes injured by hydrogen peroxide, TSL-4 and hydrogen peroxide were cultured with chondrocytes for 24 hours. The dosage of hydrogen peroxide was selected within 0.1, 0.25, 0.5 and 1 mM; the TSL-4 dosage was 0.23, 1.17, 5.86, 29.3
In the presence of different doses of H2O2, TSL-4 at proper concentration and chondrocytes were cultured for 24 h, and the relative cell viability in each administration group (relative absorbance percentage to the control group) was expressed as the following X±SD.
In the presence of the molding agent H2O2 at 0.25, 0.35, 0.5 mM, 1.17 and 5.86 μM TSL-4 were cultured with chondrocytes for 24 h, and the relative cell viability in each administration group (relative absorbance percentage to the control group) was expressed as the followings X±SD.

[4] = rat, in vivo, sc
Experimental: (1) 18 SD rats (half male and half female) were purchased and fed for one week.
(2) Rats were divided into 3 groups, half male and half female, and weight of rats were recorded respectively.
The blood was centrifuged at 12000 rpm/min to take 200 μL of supernatant, then the supernatant was diluted with PBS solution according to a ratio of 1:3, and finally placed in an EP tube and stored in a −80° C. refrigerator.
(4) Biological samples were measured by double-antibody sandwich ELISA.
(1) Coating, HM-3 monoclonal antibody was diluted with a coating buffer (CBS) in certain concentration, added to an ELISA plate and coated overnight.
(2) Plate washing, the coating buffer was discarded, and the plate was washed by PBST for 3 times, and then dried by patting.
(3) Sealing, a blocking buffer was added for sealing at 37.5° C., the plate washing process was repeated and the plate was dried by patting.
(4) Addition of samples to be measured, the samples to be measured were added to the ELISA plate with multiple wells, and then incubated at 37.5° C.; the plate washing process was repeated and the plate was dried by patting.
(5) Addition of a secondary antibody, the secondary antibody diluted proportionally was added for incubation at 37.5° C. The plate washing process was repeated and the plate was dried by patting.
(6) Addition of the enzyme-labeled secondary antibody for reaction, the HRP-labeled secondary antibody which was diluted by 5% skim milk powder solution according to certain proportion was added for incubation at 37.5° C. The plate washing process was repeated and the plate was dried by patting.
(7) Addition of a substrate, a TMB substrate in certain volume L was added for reaction in the dark.
(8) Termination of the reaction, a certain amount of stop buffer was added to terminate the reaction.
(9) Detection, read OD450 nm with a microplate reader.

mIgG4-Fc-(GGGGS)3-HM-3 [TSL-4]
inhibiting effect on angiogenesis ([1]; 20 ng/tail): significant inhibitory effect
inhibition rate of angiogenesis ([1]; 20 ng/tail iv): 36%
area of SIVs ([1]; 20 ng/tail iv): 33869
inhibition rate of angiogenesis ([1]; 66 ng/tail iv): 47%
area of SIVs ([1]; 66 ng/tail iv): 28297
MTT test value ([2]; 0.1 μM TSL-4, 24 h (Table 24, low-dose), 0 μM 1.23): 1.26
MTT test value ([2]; 0.23 μM TSL-4, 24 h (Table 25), 0 μM 1.68): 1.59
MTT test value ([2]; 0.3 μM TSL-4, 24 h (Table 24, low-dose), 0 μM 1.23): 1.2
MTT test value ([2]; 1 μM TSL-4, 24 h (Table 23), 0 μM 1.43): 1.59
MTT test value ([2]; 1 μM TSL-4, 24 h (Table 24, low-dose), 0 μM 1.23): 1.15
MTT test value ([2]; 1 μM TSL-4, 48 h (Table 23), 0 μM 1.70): 1.43
MTT test value ([2]; 1 μM TSL-4, 72 h (Table 23), 0 μM 1.51): 1.61
MTT test value ([2]; 1.17 μM TSL-4, 24 h (Table 25), 0 μM 1.68): 1.4
MTT test value ([2]; 3 μM TSL-4, 24 h (Table 23), 0 μM 1.43): 1.67
MTT test value ([2]; 3 μM TSL-4, 24 h (Table 24, low-dose), 0 μM 1.23): 1.08
MTT test value ([2]; 3 μM TSL-4, 48 h (Table 23), 0 μM 1.70): 1.43
MTT test value ([2]; 3 μM TSL-4, 72 h (Table 23), 0 μM 1.51): 1.52
MTT test value ([2]; 5.86 μM TSL-4, 24 h (Table 25), 0 μM 1.68): 1.39
MTT test value ([2]; 9 μM TSL-4, 24 h (Table 23), 0 μM 1.43): 1.72
MTT test value ([2]; 9 μM TSL-4, 48 h (Table 23), 0 μM 1.70): 1.51
MTT test value ([2]; 9 μM TSL-4, 72 h (Table 23), 0 μM 1.51): 1.57
MTT test value ([2]; 27 μM TSL-4, 24 h (Table 23), 0 μM 1.43): 1.45
MTT test value ([2]; 27 μM TSL-4, 48 h (Table 23), 0 μM 1.70): 1.30
MTT test value ([2]; 27 μM TSL-4, 72 h (Table 23), 0 μM 1.51): 1.31
MTT test value ([2]; 29.3 μM TSL-4, 24 h (Table 25), 0 μM 1.68): 1.24
influence on cell viability ([2]; 0.1-3 μM TSL-4, 24 h): no significant difference
influence on cell viability ([2]; 0.23-29.3 μM TSL-4, 24 h): no significant change in cell viability
influence on cell viability ([2]; 1-27 μM TSL-4, 24, 48 and 72 hours): no significant influence on cell viability
relative cell viability (relative absorbance percentage to the control group) ([3]; 0.23 μM TSL-4, 0.1 mM H2O2, 24 h, 0 μM 106.87 ± 9.52): 84.23 ± 20.42***
relative cell viability (relative absorbance percentage to the control group) ([3]; 0.23 μM TSL-4, 0.25 mM H2O2, 24 h, 0 μM 70.96 ± 11.61): 71.42 ± 6.74
relative cell viability (relative absorbance percentage to the control group) ([3]; 0.23 μM TSL-4, 0.5 mM H2O2, 24 h, 0 μM 1.68 ± 0.82): 3.17 ± 1.45
relative cell viability (relative absorbance percentage to the control group) ([3]; 0.23 μM TSL-4, 1 mM H2O2, 24 h, 0 μM 3.57 ± 0.60): 0.89 ± 0.32
relative cell viability (relative absorbance percentage to the control group) ([3]; 1.17 μM TSL-4, 0.1 mM H2O2, 24 h, 0 μM 106.87 ± 9.52): 100.01 ± 5.02
relative cell viability (relative absorbance percentage to the control group) ([3]; 1.17 μM TSL-4, 0.25 mM H2O2, 24 h, 0 μM 70.96 ± 11.61): 85.11 ± 8.08*
relative cell viability (relative absorbance percentage to the control group) ([3]; 1.17 μM TSL-4, 0.5 mM H2O2, 24 h, 0 μM 1.68 ± 0.82): 16.56 ± 5.91*
relative cell viability (relative absorbance percentage to the control group) ([3]; 1.17 μM TSL-4, 1 mM H2O2, 24 h, 0 μM 3.57 ± 0.60): 1.14 ± 1.07
relative cell viability (relative absorbance percentage to the control group) ([3]; 5.86 μM TSL-4, 0.1 mM H2O2, 24 h, 0 μM 106.87 ± 9.52): 102.36 ± 9.75
relative cell viability (relative absorbance percentage to the control group) ([3]; 5.86 μM TSL-4, 0.25 mM H2O2, 24 h, 0 μM 70.96 ± 11.61): 86.35 ± 4.20*
relative cell viability (relative absorbance percentage to the control group) ([3]; 5.86 μM TSL-4, 0.5 mM H2O2, 24 h, 0 μM 1.68 ± 0.82): 10.27 ± 7.08
relative cell viability (relative absorbance percentage to the control group) ([3]; 5.86 μM TSL-4, 1 mM H2O2, 24 h, 0 μM 3.57 ± 0.60): 1.21 ± 0.70
relative cell viability (relative absorbance percentage to the control group) ([3]; 29.3 μM TSL-4, 0.1 mM H2O2, 24 h, 0 μM 106.87 ± 9.52): 76.46 ± 5.45****
relative cell viability (relative absorbance percentage to the control group) ([3]; 29.3 μM TSL-4, 0.25 mM H2O2, 24 h, 0 μM 70.96 ± 11.61): 59.72 ± 3.49
relative cell viability (relative absorbance percentage to the control group) ([3]; 29.3 μM TSL-4, 0.5 mM H2O2, 24 h, 0 μM 1.68 ± 0.82): 3.87 ± 6.00
relative cell viability (relative absorbance percentage to the control group) ([3]; 29.3 μM TSL-4, 1 mM H2O2, 24 h, 0 μM 3.57 ± 0.60): 0.43 ± 0.53
viability of chondrocytes stimulated by H2O2 ([3]; 0.23/29.3 μM TSL-4, 0.1 mM H2O2): relatively significantly inhibiting effect
relative cell viability (relative absorbance percentage to the control group) ([3]; repeated trial: 1.17 μM TSL-4, 0.25 mM H2O2, 24 h, 0 μM 78.77 ± 7.45): 85.31 ± 7.36
relative cell viability (relative absorbance percentage to the control group) ([3]; repeated trial: 1.17 μM TSL-4, 0.35 mM H2O2, 24 h, 0 μM 63.96 ± 6.46): 68.54 ± 3.62
relative cell viability (relative absorbance percentage to the control group) ([3]; repeated trial: 1.17 μM TSL-4, 0.5 mM H2O2, 24 h, 0 μM 37.10 ± 6.53): 41.46 ± 2.08
relative cell viability (relative absorbance percentage to the control group) ([3]; repeated trial: 5.86 μM TSL-4, 0.25 mM H2O2, 24 h, 0 μM 78.77 ± 7.45): 87.36 ± 7.85
viability of chondrocytes injured by H2O2 ([3]; repeated trial: 5.86 μM TSL-4, 0.35 mM H2O2): significantly improve the viability of chondrocytes
relative cell viability (relative absorbance percentage to the control group) ([3]; repeated trial: 5.86 μM TSL-4, 0.35 mM H2O2, 24 h, 0 μM 63.96 ± 6.46): 73.29 ± 4.39
relative cell viability (relative absorbance percentage to the control group) ([3]; repeated trial: 5.86 μM TSL-4, 0.5 mM H2O2, 24 h, 0 μM 37.10 ± 6.53): 45.07 ± 6.36
Vd/F ([4]; 4.17 mg/kg): 4.200 L/kg
Vd/F ([4]; 12.5 mg/kg): 3.177 L/kg
Vd/F ([4]; 37.5 mg/kg): 4.967 L/kg
